The subject of one series is NCI-H460. The series can be described thus: Growth inhibition of human NCI-H460 cells incubated for 48 hrs by SRB assay. Type of series: functional.
Series [1] deals with MCF7. The series can be described thus: Growth inhibition of human MCF7 cells incubated for 48 hrs by SRB assay. Type of series: functional. In general terms: The SRB assay estimates cell density from bound dye.
In a further series the test system is SF-268. The series can be described thus: Growth inhibition of human SF-268 cells incubated for 48 hrs by SRB assay. Type of series: functional.
Series [2] can be described thus: Antioxidant activity assessed as DPPH radical scavenging activity at 10 uM incubated for 30 mins by absorbance based assay relative to control. The class given is functional. A general note: DPPH is a stable violet radical that fades when it is reduced.
Series [3] in a line: Antioxidant activity assessed as ROS scavenging activity relative to control. The class given is functional. As to conditions: dose or concentration not given here.
Series [4] has as its target T1, Polyunsaturated fatty acid 5-lipoxygenase (Homo sapiens, UniProt P09917).
T1 sequence (P09917 whole entry): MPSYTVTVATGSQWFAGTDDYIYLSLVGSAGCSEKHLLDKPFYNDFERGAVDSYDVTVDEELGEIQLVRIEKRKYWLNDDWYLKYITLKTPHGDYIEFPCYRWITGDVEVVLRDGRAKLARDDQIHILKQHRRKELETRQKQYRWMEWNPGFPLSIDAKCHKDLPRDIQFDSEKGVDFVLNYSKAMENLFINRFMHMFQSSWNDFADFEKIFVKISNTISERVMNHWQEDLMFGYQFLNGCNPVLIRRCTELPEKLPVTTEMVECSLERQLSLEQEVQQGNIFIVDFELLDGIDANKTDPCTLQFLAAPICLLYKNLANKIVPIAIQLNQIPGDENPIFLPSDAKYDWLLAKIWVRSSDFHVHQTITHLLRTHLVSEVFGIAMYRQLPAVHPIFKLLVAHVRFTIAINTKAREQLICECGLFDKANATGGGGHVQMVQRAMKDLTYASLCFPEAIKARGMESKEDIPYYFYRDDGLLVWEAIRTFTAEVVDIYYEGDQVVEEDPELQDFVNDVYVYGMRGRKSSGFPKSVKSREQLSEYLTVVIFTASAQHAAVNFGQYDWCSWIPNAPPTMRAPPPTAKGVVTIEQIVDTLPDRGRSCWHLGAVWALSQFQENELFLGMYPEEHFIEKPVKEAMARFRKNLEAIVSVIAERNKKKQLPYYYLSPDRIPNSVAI
The series can be described thus: Inhibition of 5-LOX (unknown origin).

Series [5] addresses T2, Glucagon receptor (Homo sapiens, UniProt P47871). Nature of the series: Antagonist activity at wild type human GCGR transfected in HEK293T cells assessed as intracellular cAMP accumulation incubated for 60 mins by FRET assay. Type of series: functional, cell-based. (Changes in cAMP serve as a functional read-out for many G protein-coupled receptors.)
Series [6] concerns the target T2, Glucagon receptor. Nature of the series: Antagonist activity at wild type human GCGR.
Series [7] concerns Bacillus subtilis. The series can be described thus: Antibacterial activity against Bacillus subtilis ATCC 6633 assessed as zone of inhibition incubated for 48 hrs by agar diffusion method. The class given is functional.
In another series the test system is Escherichia coli. The series can be described thus: Antibacterial activity against Escherichia coli ATCC 35218 assessed as zone of inhibition incubated for 48 hrs by agar diffusion method. Type of series: functional.
Series [8] deals with MCF7. Nature of the series: Antiproliferative activity against human MCF7 cells. The class given is functional, cell-based.
A short description of series [9]: Elimination half life in human at 5 mg/kg, po. Type of series: ADME, organism-based. The following applies: in vivo, read-out: LambdaZ (converted).
A further series deals with Candida albicans. Nature of the series: Antifungal activity against Candida albicans assessed as zone of inhibition. Type of series: functional.
In the next series the test system is Arthroderma pannicola. Nature of the series: Antifungal activity against Arthroderma pannicola assessed as diameter of zone of inhibition. The class given is functional.
The subject of series [10] is Bacillus subtilis. The series can be described thus: Antibacterial activity against Bacillus subtilis ATCC 6633 assessed as zone of inhibition. Type of series: functional.
The test system of another series is Staphylococcus aureus. Nature of the series: Antibacterial activity against Staphylococcus aureus ATCC 25923 assessed as zone of inhibition. The class given is functional.
Series [11] in a line: Half life in po dosed human. Type of series: ADME, organism-based. The following applies: in vivo.
The target of the next series is Acetylcholinesterase (Homo sapiens, UniProt P22303). The series can be described thus: Inhibition of AChE (unknown origin) by Ellman's method.
Acetylcholinesterase, sequence (P22303 whole entry): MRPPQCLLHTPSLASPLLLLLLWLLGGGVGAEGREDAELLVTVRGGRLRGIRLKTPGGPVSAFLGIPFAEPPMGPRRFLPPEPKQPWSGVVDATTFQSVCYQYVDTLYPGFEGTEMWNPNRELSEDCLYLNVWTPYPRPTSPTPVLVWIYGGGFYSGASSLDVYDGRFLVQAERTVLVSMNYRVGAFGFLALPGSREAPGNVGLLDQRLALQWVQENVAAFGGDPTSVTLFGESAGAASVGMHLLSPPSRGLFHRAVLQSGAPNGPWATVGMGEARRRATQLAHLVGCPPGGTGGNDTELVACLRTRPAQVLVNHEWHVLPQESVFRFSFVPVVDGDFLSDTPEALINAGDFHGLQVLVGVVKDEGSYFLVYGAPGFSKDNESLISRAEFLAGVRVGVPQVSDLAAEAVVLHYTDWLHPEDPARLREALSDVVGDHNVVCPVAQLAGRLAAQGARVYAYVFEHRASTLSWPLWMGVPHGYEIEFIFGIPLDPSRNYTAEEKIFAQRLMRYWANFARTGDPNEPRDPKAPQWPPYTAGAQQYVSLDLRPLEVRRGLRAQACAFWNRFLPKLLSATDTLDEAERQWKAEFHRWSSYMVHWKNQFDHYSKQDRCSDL
The next series has as its system PC-3. The series can be described thus: cells. The following applies: Homo sapiens.
The subject of the next series is MDA-MB-231. The series can be described thus: cells. The following applies: Homo sapiens.
Another series relates to A549. Nature of the series: cells. As to conditions: Homo sapiens.
For a further series, the system named is Mus musculus. Nature of the series: Anti-diabetic activity against 16 hrs fasted KK/Ay mouse assessed as reduced blood glucose level at 2g/kg, po measured after 2 hrs by oral pyruvate tolerance test. The class given is functional.
The next series has as its system dsRNA. The series can be described thus: Inhibition of double stranded RNA (unknown origin). The class given is nucleic-acid assay.
The nature of series [12]: Inhibition of Alpha-amylase (unknown origin). Details: species or system Homo sapiens.
For a further series, the target named is Alpha glucosidase (Homo sapiens, UniProt O43451+P10253+P14410+Q2M2H8). The series can be described thus: Inhibition of Alpha glucosidase (unknown origin). The class given is protein assay.
Series [13] addresses Vascular endothelial growth factor receptor 2 (Homo sapiens, UniProt P35968). The series can be described thus: Inhibition of VEGFR2 (unknown origin).
The target of series [14] is Epidermal growth factor receptor (Homo sapiens, UniProt P00533). The series can be described thus: Inhibition of EGFR (unknown origin).
Epidermal growth factor receptor, sequence (P00533 whole entry): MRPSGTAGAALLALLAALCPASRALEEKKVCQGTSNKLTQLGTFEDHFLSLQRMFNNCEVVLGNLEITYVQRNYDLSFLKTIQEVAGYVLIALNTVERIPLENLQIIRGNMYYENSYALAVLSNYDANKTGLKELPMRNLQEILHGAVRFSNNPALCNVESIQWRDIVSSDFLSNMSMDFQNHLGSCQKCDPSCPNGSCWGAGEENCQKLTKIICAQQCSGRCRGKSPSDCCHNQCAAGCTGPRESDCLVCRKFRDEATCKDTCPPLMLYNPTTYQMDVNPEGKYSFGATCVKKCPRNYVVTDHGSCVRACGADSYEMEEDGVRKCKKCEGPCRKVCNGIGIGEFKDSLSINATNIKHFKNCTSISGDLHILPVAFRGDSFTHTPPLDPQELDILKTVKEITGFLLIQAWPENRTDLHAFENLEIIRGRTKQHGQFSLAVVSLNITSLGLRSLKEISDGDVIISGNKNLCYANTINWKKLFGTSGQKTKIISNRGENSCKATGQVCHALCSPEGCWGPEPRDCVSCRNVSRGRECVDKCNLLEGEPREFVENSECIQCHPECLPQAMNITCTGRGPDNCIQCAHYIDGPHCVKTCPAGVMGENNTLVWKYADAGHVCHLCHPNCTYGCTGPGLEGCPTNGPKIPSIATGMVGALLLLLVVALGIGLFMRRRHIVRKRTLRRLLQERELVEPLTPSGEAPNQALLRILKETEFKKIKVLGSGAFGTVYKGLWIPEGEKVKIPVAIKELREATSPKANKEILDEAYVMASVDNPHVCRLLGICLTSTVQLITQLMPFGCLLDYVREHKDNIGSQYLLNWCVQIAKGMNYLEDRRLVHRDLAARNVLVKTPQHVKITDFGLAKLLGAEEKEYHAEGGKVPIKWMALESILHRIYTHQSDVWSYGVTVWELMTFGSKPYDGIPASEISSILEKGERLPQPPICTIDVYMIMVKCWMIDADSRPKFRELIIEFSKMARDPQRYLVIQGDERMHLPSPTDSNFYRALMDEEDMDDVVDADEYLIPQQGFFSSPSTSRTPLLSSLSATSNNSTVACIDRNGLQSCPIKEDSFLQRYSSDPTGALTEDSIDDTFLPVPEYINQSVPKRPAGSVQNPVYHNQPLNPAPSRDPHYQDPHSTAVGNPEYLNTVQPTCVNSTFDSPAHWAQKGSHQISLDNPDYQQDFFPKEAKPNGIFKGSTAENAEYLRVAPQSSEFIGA
Series [15] in a line: Antioxidant activity assessed as DPPH radical scavenging activity. The class given is functional.

Values after ≈ are worked out from the molar mass of the structure shown.

T2 sequence (P47871 whole entry): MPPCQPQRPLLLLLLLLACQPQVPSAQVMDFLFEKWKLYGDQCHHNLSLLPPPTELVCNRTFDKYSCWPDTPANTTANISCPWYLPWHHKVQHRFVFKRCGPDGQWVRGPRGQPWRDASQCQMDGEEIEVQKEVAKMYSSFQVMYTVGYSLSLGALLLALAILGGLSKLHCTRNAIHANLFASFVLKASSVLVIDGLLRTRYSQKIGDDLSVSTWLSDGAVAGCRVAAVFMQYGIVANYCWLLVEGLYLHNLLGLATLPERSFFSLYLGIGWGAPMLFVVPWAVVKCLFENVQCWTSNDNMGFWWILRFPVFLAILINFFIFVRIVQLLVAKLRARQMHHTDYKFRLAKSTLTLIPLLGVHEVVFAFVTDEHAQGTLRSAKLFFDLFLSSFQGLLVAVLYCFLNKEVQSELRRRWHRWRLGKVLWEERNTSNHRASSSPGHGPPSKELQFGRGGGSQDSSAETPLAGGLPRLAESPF
Vascular endothelial growth factor receptor 2, sequence (P35968 whole entry): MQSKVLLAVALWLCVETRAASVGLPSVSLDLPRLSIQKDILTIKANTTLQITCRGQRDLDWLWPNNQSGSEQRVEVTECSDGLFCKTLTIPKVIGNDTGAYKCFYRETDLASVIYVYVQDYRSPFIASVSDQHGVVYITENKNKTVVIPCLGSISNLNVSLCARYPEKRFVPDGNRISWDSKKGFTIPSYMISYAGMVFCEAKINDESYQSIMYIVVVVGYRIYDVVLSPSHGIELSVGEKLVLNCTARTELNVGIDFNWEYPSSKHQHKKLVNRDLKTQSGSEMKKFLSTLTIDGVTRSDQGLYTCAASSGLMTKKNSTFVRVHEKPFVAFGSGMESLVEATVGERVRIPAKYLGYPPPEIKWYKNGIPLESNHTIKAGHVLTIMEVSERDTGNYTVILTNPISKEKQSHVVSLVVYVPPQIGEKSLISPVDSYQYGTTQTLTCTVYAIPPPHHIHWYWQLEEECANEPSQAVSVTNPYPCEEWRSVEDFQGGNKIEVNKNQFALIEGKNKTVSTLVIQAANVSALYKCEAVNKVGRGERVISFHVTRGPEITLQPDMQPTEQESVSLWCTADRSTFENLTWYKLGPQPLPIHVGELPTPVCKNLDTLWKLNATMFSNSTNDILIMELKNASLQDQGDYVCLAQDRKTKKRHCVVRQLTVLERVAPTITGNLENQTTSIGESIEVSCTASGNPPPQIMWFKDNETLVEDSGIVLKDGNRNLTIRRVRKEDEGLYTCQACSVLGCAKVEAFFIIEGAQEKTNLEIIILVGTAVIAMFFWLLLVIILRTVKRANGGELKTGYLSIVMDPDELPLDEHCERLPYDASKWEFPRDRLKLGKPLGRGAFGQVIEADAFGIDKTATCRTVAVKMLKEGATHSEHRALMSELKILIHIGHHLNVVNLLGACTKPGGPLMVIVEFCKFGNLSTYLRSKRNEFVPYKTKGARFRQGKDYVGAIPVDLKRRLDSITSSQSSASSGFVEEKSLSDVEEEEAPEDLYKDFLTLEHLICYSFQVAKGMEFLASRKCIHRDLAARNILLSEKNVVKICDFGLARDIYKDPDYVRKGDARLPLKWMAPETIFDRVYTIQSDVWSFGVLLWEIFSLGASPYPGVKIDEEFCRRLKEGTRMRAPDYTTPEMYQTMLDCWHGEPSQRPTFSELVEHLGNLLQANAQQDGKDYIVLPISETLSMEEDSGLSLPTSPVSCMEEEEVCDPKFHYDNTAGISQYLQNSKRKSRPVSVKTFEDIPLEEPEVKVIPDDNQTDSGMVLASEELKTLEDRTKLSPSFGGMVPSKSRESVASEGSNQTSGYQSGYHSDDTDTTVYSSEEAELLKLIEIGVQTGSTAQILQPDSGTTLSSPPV
Description for A549: Cytotoxicity against human A549 cells assessed as reduction in cell viability by MTT assay
Description for MDA-MB-231: Cytotoxicity against human MDA-MB-231 cells assessed as reduction in cell viability by MTT assay
Description for PC-3: Cytotoxicity against human PC-3 cells assessed as reduction in cell viability by MTT assay

The term GI50 denotes the concentration that inhibits growth by half. Low readings indicate more potent growth inhibition, high ones less potent growth inhibition. Consider `N#Cc1c(-n2c(N)c(C#N)c(N)c(/N=N/c3ccccc3)c2=O)sc2c1CCCC2`, for which the GI50 in the series with NCI-H460 is 8.3 µM; in the series on MCF7 [1] it was 2 µM; in the series on SF-268, 4 µM.
One may read the inhibition as the percentage by which the read-out fell short of the control. As for `Cc1cc(=O)oc2c(/C=N/NC(=O)c3sc4ccccc4c3Cl)c(O)ccc12`, the inhibition in [2] was found to be 50%.
As for `COC1=C(Nc2sc3c(c2C(N)=O)CCCC3)C(=O)c2ccccc2C1=O`, the inhibition in [3] stood at 96%.
By IC50 is commonly meant the concentration needed to halve the response being measured. `COc1cc2ncn(-c3cc(OCc4ccccc4C(F)(F)F)c(C(N)=O)s3)c2cc1OC` [GW843682X] showed a 50% inhibitory concentration (IC50) in series [4] of 10 µM.
Turning to `Cc1cc(Cl)ccc1-c1ccc(NC(=O)C(Cc2ccc(C(=O)NCCS(=O)(=O)O)s2)c2ccc(-c3ccc(C(C)(C)C)cc3)cc2)cc1` (stereo not drawn), the figures for the half-maximal inhibitory concentration (IC50) on Glucagon receptor [5] and at Glucagon receptor [6] were 14.4 µM and 4.4 µM, respectively.
In the case of `O=c1[nH]c(-c2sc3ccccc3c2Cl)nc2ccccc12`, the “inhibition zone (IZ)” value in the series with Bacillus subtilis [7] is recorded as 16 mm; in the series on Escherichia coli, 12 mm.
On to `Oc1ccc(Nc2nnnc3sc4c(c23)CCC4)cc1`, for which the IC50 with MCF7 [8] (mcf7) came to 38.73 µM.
Regarding `Cc1ccc([C@@H]2O[C@H](CO)[C@@H](O)[C@H](O)[C@H]2O)cc1Cc1ccc(-c2ccc(F)cc2)s1` [CANAGLIFLOZIN ANHYDROUS], the half-life in series [9] is 10.6 h.
With `Nc1sc2c(c1C(=O)Nc1cnc3ccccc3c1)CCCC2`, the IC50 in the series with MCF7 [8] (Homo sapiens, MCF7, read-out: IC50) was 33.1 µM.
Regarding `O=c1c2ccccc2nc(-c2sc3ccccc3c2Cl)n1-c1ccc(F)cc1`, the “inhibition zone (IZ)” value in the series with Candida albicans and in the series on Arthroderma pannicola was 14 mm each time.
As to `Clc1c(-c2nnc(CNc3ccccc3)o2)sc2ccccc12`, the “inhibition zone (IZ)” value in the series on Bacillus subtilis [10] is listed as 16 mm; in the series with Staphylococcus aureus it was 15 mm.
In turn, `CC(C(=O)O)c1ccc(C(=O)c2ccccc2)s1` (stereo not drawn) [TIAPROFENIC ACID] showed a half-life in series [11] of 1.5 h.
For `O=C(Nc1nc(-c2cc(Cl)cs2)c(N2CCN(C3CCCCC3)CC2)s1)c1cnc(N2CCC(C(=O)O)CC2)c(Cl)c1` [AVATROMBOPAG], the half-life in series [11] is 19 h.
At Acetylcholinesterase, `O=C(/C=C/c1cccs1)c1ccc(OCCCCBr)cc1` returned an IC50 of 0.42 µM.
`COc1cccc2c1C(=O)c1c(O)c3c(c(O)c1C2=O)C[C@@](O)(C(=O)CO)C[C@@H]3O[C@H]1C[C@H](N)[C@H](O)[C@H](C)O1` [DOXORUBICIN]: the IC50 in the series with PC-3 amounted to 0.7 µM; in the series with MDA-MB-231, 0.98 µM; with A549, 0.7 µM.
Consider `CC(=O)Oc1cc2c(s1)CCN(C(C(=O)C1CC1)c1ccccc1F)C2` (stereo not drawn), for which the half-life in [9] is 7.4 h.
On to `O=C(C[S+]([O-])C(F)(F)F)c1cc2ccccc2s1` (stereo not drawn), for which the Activity with Mus musculus is less than 10 mmol/L.
`Clc1ccc(C2CC(c3ccc(Cl)s3)=NN2c2ccccc2)cc1` (stereo not drawn) yielded an IC50 in the series with dsRNA of 11 µM.
On to `O=c1c2ccccc2nc(-c2sc3ccccc3c2Cl)n1-c1ccc([N+](=O)[O-])cc1`, for which the “inhibition zone (IZ)” value in the series with Candida albicans and in the series on Arthroderma pannicola was 17 mm each time.
On to `CC(=O)CC(=O)c1cc2ccccc2s1`, for which the Activity with Mus musculus was less than 15.6 mmol/L.
Consider `COc1ccc(CNC(=O)Nc2sc3c(c2C#N)CCCC3)c(OC)c1`, for which the IC50 was 30.4 µM in series [12] and 0.59 µM against Alpha glucosidase.
Take `O=C(O[C@H]1C[N+]2(CCCOc3ccccc3)CCC1CC2)C(O)(c1cccs1)c1cccs1`: in series [11], the half-life is 24 h.
Regarding `N#Cc1c(N)sc(C(=O)NC2=NN=C(O)/C2=C(\C=C\c2ccccc2)c2ccccc2)c1N`, the IC50 in [13] and in series [14] was 0.32 µM in each case.
For the compound `Cc1ccc(NCc2ccc(CNc3ccc(C)cc3)o2)cc1`, the results for the IC50 in the series on PC-3, in the series on MDA-MB-231 and with A549 were 1.03 µM, 0.88 µM and 0.68 µM, respectively.
As to `COc1cccc(NC(=O)Cn2cc(CN3CNc4sccc4C3=O)nn2)c1`, the IC50 in series [15] was 30.16 µg/mL (≈ 75.7 µM).

For the origin of these results see ChEMBL document CHEMBL6182828, “Medicinal chemistry-based perspectives on thiophene and its derivatives: exploring structural insights to discover plausible druggable leads” (RSC Med Chem, 2025).
